# Laboratory results published in patent US11180474B2 (BRISTOL-MYERS SQUIBB COMPANY, priority 2016, dated 2021).
# Target: T1, human TLR8 (Homo sapiens, UniProt Q9NR97)
# T1 construct: host or cells: HEK-Blue cells
# T1 sequence (Q9NR97 27-1041): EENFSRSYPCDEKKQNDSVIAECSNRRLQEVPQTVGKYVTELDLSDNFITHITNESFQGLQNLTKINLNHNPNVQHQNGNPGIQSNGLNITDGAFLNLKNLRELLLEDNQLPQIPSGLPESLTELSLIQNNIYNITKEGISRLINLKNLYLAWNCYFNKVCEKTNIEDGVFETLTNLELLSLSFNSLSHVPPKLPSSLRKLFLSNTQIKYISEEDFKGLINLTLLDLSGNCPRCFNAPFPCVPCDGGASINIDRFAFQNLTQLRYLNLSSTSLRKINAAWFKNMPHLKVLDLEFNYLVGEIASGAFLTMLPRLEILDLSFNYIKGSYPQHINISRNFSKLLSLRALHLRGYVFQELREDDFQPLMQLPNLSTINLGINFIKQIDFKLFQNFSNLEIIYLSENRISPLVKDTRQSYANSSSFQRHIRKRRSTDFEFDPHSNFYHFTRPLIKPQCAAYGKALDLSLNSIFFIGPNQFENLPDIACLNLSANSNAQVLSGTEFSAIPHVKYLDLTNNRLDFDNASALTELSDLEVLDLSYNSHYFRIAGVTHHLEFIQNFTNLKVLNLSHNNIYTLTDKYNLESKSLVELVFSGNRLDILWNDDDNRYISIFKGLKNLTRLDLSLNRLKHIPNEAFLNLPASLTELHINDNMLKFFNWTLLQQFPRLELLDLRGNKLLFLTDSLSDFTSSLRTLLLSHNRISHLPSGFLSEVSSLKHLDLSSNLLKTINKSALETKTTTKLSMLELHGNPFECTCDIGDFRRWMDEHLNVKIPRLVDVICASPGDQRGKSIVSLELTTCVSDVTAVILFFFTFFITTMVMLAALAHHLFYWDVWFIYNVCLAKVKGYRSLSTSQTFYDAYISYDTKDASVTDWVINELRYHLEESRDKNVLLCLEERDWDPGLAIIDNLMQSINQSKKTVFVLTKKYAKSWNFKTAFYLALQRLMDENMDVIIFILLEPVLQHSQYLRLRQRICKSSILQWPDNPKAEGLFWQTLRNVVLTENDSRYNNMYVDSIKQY
# Test: TLR8 inhibition reporter assay (HEK-Blue cells, SEAP reporter, R848 stimulation)
# Type: cell-based
# Conditions: HEK-Blue cells overexpressing human TLR8, R848 15.9 μM
# In short: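 Cells (15000/well for TLR7, 20,000 for TLR8) were treated with compounds over 0.05 nM-50 μM final. After 22 h at 37° C, 5% CO2, SEAP was measured with HEK-Blue Detection reagent; percent inhibition was taken as reduction of agonist-plus-DMSO signal relative to a known inhibitor.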
row,Compound,IC50 [nM]
1,"COc1ccc(-c2[nH]c3ccc(C4CCN(C(=O)CN5CCC[C@@H](C(=O)NCC#N)C5)CC4)cc3c2C(C)C)cc1OC [Example 308, (R)—N-(cyanomethyl)-1-(2-(4-(2-(3,4-dimethoxyphenyl)-3-isopropyl-1H-indol-5-yl)piperidin-1-yl)-2-oxoethyl)piperidine-3-carboxamide]",41
2,"COc1ccc(-c2[nH]c3ccc(C4CCN(C(=O)CN5CCCC(CO)C5)CC4)cc3c2C(C)C)cc1OC (stereo not drawn) [Example 226, 1-(4-(2-(3,4-dimethoxyphenyl)-3-isopropyl-1H-indol-5-yl)piperidin-1-yl)-2-(3-(hydroxymethyl)piperidin-1-yl)ethan-1-one]",17
3,"COc1ccc(-c2[nH]c3ccc(C4CCN(C(=O)CN5CCC[C@@H](C(=O)N6CCCC6)C5)CC4)cc3c2C(C)C)cc1OC [Example 303, (R)-1-(4-(2-(3,4-dimethoxyphenyl)-3-isopropyl-1H-indol-5-yl)piperidin-1-yl)-2-(3-(pyrrolidine-1-carbonyl)piperidin-1-yl)ethan-1-one]",31
4,"COc1ccc(-c2[nH]c3ccc(C4CCN(C(=O)CN5CCC[C@H](C(=O)N6CCN(C(C)C)CC6)C5)CC4)cc3c2C(C)C)cc1OC [Example 286, (S)-1-(4-(2-(3,4-dimethoxyphenyl)-3-isopropyl-1H-indol-5-yl)piperidin-1-yl)-2-(3-(4-isopropylpiperazine-1-carbonyl)piperidin-1-yl)ethan-1-one]",17
5,"COc1ccc(-c2[nH]c3ccc(C4CCN(C(=O)CN5CCCN(C)CC5)CC4)cc3c2C(C)C)cc1OC [Example 239, 1-(4-(2-(3,4-dimethoxyphenyl)-3-isopropyl-1H-indol-5-yl)piperidin-1-yl)-2-(4-methyl-1,4-diazepan-1-yl)ethan-1-one]",17
6,"COc1ccc(-c2[nH]c3ccc(C4CCN(Cc5cnn(C)c5)CC4)cc3c2C(C)C)cc1OC [Example 259, 2-(3,4-dimethoxyphenyl)-3-isopropyl-5-(1-((1-methyl-1H-pyrazol-4-yl)methyl)piperidin-4-yl)-1H-indole]",11
7,"COc1ccc(-c2[nH]c3ccc(C4CCN(C(=O)CN5CCCC(C(=O)NC6CCN(C(C)C)CC6)C5)CC4)cc3c2C(C)C)cc1OC (single isomer, unassigned) [Example 281, 1-(2-(4-(2-(3,4-dimethoxyphenyl)-3-isopropyl-1H-indol-5-yl)piperidin-1-yl)-2-oxoethyl)-N-(1-isopropylpiperidin-4-yl)piperidine-3-carboxamide]",20
8,"COc1ccc(-c2[nH]c3ccc(C4CCN(C(=O)CNC[C@H](O)CO)CC4)cc3c2C(C)C)cc1OC [Example 235, (S)-2-((2,3-dihydroxypropyl)amino)-1-(4-(2-(3,4-dimethoxyphenyl)-3-isopropyl-1H-indol-5-yl)piperidin-1-yl)ethan-1-one]",39
9,"COc1ccc(-c2[nH]c3ccc(C4CCN(C(=O)CN5CCN(C(C)C)CC5)CC4)cc3c2C(C)C)cc1OC [Example 240, 1-(4-(2-(3,4-dimethoxyphenyl)-3-isopropyl-1H-indol-5-yl)piperidin-1-yl)-2-(4-isopropylpiperazin-1-yl)ethan-1-one]",34
10,"COc1ccc(-c2[nH]c3ccc(C4CCN(C(=O)CN5CCC[C@H](C(=O)NCC(N)=O)C5)CC4)cc3c2C(C)C)cc1OC [Example 298, (S)—N-(2-amino-2-oxoethyl)-1-(2-(4-(2-(3,4-dimethoxyphenyl)-3-isopropyl-1H-indol-5-yl)piperidin-1-yl)-2-oxoethyl)piperidine-3-carboxamide]",27
11,"COc1ccc(-c2[nH]c3ccc(C4CCN(C(=O)CN[C@@H](CO)CC(C)C)CC4)cc3c2C(C)C)cc1OC [Example 234, (R)-1-(4-(2-(3,4-dimethoxyphenyl)-3-isopropyl-1H-indol-5-yl)piperidin-1-yl)-2-((1-hydroxy-4-methylpentan-2-yl)amino) ethan-1-one]",63
12,"COc1ccc(-c2[nH]c3ccc(C4CCN(C(=O)CN5CCC[C@H](C(=O)N6CCCC(O)C6)C5)CC4)cc3c2C(C)C)cc1OC (stereo partly drawn) [Example 292, 1-(4-(2-(3,4-dimethoxyphenyl)-3-isopropyl-1H-indol-5-yl)piperidin-1-yl)-2-((3S)-3-(3-hydroxypiperidine-1-carbonyl)piperidin-1-yl)ethan-1-one]",22
13,"CCN(CC)C(=O)C1CCCN(CC(=O)N2CCC(c3ccc4[nH]c(-c5ccc(OC)c(OC)c5)c(C(C)C)c4c3)CC2)C1 (stereo not drawn) [Example 248, 1-(2-(4-(2-(3,4-dimethoxyphenyl)-3-isopropyl-1H-indol-5-yl)piperidin-1-yl)-2-oxoethyl)-N,N-diethylpiperidine-3-carboxamide]",22
14,"COc1ccc(-c2[nH]c3ccc(C4CCN(C(=O)CN[C@H]5CC[C@H](N)CC5)CC4)cc3c2C(C)C)cc1OC [Example 232, 2-(((1r,4r)-4-aminocyclohexyl)amino)-1-(4-(2-(3,4-dimethoxyphenyl)-3-isopropyl-1H-indol-5-yl)piperidin-1-yl)ethan-1-one]",169
15,"COc1ccc(-c2[nH]c3ccc(C4CCN(Cc5cnc[nH]5)CC4)cc3c2C(C)C)cc1OC [Example 268, 5-(1-((1H-imidazol-5-yl)methyl)piperidin-4-yl)-2-(3,4-dimethoxyphenyl)-3-isopropyl-1H-indole]",15
16,"COc1ccc(-c2[nH]c3ccc(C4CCN(C(=O)CN5CCC[C@H](C(=O)N6CCC(N(C)C)CC6)C5)CC4)cc3c2C(C)C)cc1OC [Example 289, (S)-1-(4-(2-(3,4-dimethoxyphenyl)-3-isopropyl-1H-indol-5-yl)piperidin-1-yl)-2-(3-(4-(dimethylamino)piperidine-1-carbonyl)piperidin-1-yl)ethan-1-one]",14
17,"COc1ccc(-c2[nH]c3ccc(C4CCN(C(=O)CN5CCCC(C(=O)NC6CCN(C(C)C)CC6)C5)CC4)cc3c2C(C)C)cc1OC (single isomer, unassigned) [Example 280, 1-(2-(4-(2-(3,4-dimethoxyphenyl)-3-isopropyl-1H-indol-5-yl)piperidin-1-yl)-2-oxoethyl)-N-(1-isopropylpiperidin-4-yl)piperidine-3-carboxamide]",22
18,"COc1ccc(-c2[nH]c3ccc(C4CCN(C(=O)C[C@H](C)N)CC4)cc3c2C(C)C)cc1OC [Example 253, (S)-3-amino-1-(4-(2-(3,4-dimethoxyphenyl)-3-isopropyl-1H-indol-5-yl)piperidin-1-yl)butan-1-one]",19
19,"COc1ccc(-c2[nH]c3ccc(C4CCN(C(=O)CN5CCN(CC(=O)NC(C)C)CC5)CC4)cc3c2C(C)C)cc1OC [Example 229, 2-(4-(2-(4-(2-(3,4-dimethoxyphenyl)-3-isopropyl-1H-indol-5-yl)piperidin-1-yl)-2-oxoethyl)piperazin-1-yl)-N-isopropylacetamide]",43
20,"CCN(CC)C(=O)C1CCCN(C(=O)CN2CCC(c3ccc4[nH]c(-c5ccc(OC)c(OC)c5)c(C(C)C)c4c3)CC2)C1 (stereo not drawn) [Example 272, 1-(2-(4-(2-(3,4-dimethoxyphenyl)-3-isopropyl-1H-indol-5-yl)piperidin-1-yl)acetyl)-N,N-diethylpiperidine-3-carboxamide]",37
21,"COc1ccc(-c2[nH]c3ccc(C4CCN(CC(=O)NCCO)CC4)cc3c2C(C)C)cc1OC [Example 276, 2-(4-(2-(3,4-dimethoxyphenyl)-3-isopropyl-1H-indol-5-yl)piperidin-1-yl)-N-(2-hydroxyethyl) acetamide]",27
22,"COc1ccc(-c2[nH]c3ccc(C4CCN(CC(=O)N5CCN(C)CC5)CC4)cc3c2C(C)C)cc1OC [Example 274, 2-(4-(2-(3,4-dimethoxyphenyl)-3-isopropyl-1H-indol-5-yl)piperidin-1-yl)-1-(4-methylpiperazin-1-yl) ethan-1-one]",228
23,"COc1ccc(-c2[nH]c3ccc(C4CCNCC4O)cc3c2C(C)C)cc1OC (single isomer, unassigned) [Example 317, 4-(2-(3,4-dimethoxyphenyl)-3-isopropyl-1H-indol-5-yl)piperidin-3-ol 2,2,2-trifluoroacetate]",82
24,"COc1ccc(-c2[nH]c3ccc(C4CCN(C(=O)CN5CCC[C@@H](C(=O)N6CCC(N(C)C)CC6)C5)CC4)cc3c2C(C)C)cc1OC [Example 305, (R)-1-(4-(2-(3,4-dimethoxyphenyl)-3-isopropyl-1H-indol-5-yl)piperidin-1-yl)-2-(3-(4-(dimethylamino)piperidine-1-carbonyl)piperidin-1-yl)ethan-1-one]",26
